Where “and” joins values, the source holds several entries; their conditions need not be identical. Equal values may be shown once.
What was measured:
[1] = system: yellowjackets; test: Three ester trap trials taken together (totals and conclusions); type: in vivo, Vespula pensylvanica; settings: for relative attractiveness of the esters, in words: heptyl butyrate, octyl butyrate and their combination compared; for Total numbers of yellowjackets caught for all trials: sum of Tables 1-3
Experimental: Several experiments were performed to determine the relative attractiveness of heptyl butyrate, octyl butyrate and a 1:1 mixture of the two esters. In an initial experiment, one trap each containing octyl butyrate, heptyl butyrate, or a 1:1 mixture of the two esters, was placed around the perimeter of the north lawn of the Lawrence Hall of Science, University of California, Berkeley. After approximately 1 month, the yellowjackets in each trap were collected and counted. […] The results are shown below in Table 1: A second experiment was set up at the Lawrence Hall of Science upper patio, placing 4 sets of the three treatments randomly around the patio, a total of 12 traps. One trap containing octyl butyrate was lost and not counted. After twenty days, the total numbers of yellowjackets caught for each of the treatments is shown in table 2 below: A third trial was performed in the same location using a total of 12 traps. There were 4 repetitions of each treatment presented. The total number of yellowjackets caught per each treatment is shown in table 3: Total numbers of yellowjackets caught for all trials are given below: The trial from Jul. 21-Aug. 10, 2005 cannot be assumed to be an anomaly.

[2] = system: yellowjackets; test: Third field trap trial, LHS upper patio, 12 traps; type: in vivo, Vespula pensylvanica; settings: 8/11-9/7/05, LHS UP; for total YJ: 4 repetitions of each treatment
Experimental: A third trial was performed in the same location using a total of 12 traps. There were 4 repetitions of each treatment presented.

[3] = system: yellowjackets; test: Field trap test octyl butyrate vs. OB + 1% methyl salicylate, LHS Back Plaza; type: in vivo, Vespula pensylvanica; settings: 1% MSA
Experimental: In one experiment, octyl butyrate (OB) was compared with OB containing 1% methyl salicylate (MSA). Six traps were placed at the Lawrence Hall of Science Back Plaza on Jul. 21, 2005. Three of the traps were baited with octyl butyrate alone. The other three were baited with the mixture of 1% methyl salicylate in octyl butyrate. Each of the traps contained 8ml of attractant dispensed on a cotton pad, which was placed inside the trap. The traps were collected on Sep. 8, 2005, and the yellowjackets counted.

[4] = system: yellowjackets; test: Second field trap experiment, LHS upper patio, 4 sets of three treatments; type: in vivo, Vespula pensylvanica; settings: 7/21-8/10/05, twenty days, LHS UP, 4 traps per treatment (one octyl butyrate trap lost)
Excerpt: A second experiment was set up at the Lawrence Hall of Science upper patio, placing 4 sets of the three treatments randomly around the patio, a total of 12 traps. One trap containing octyl butyrate was lost and not counted.

[5] = system: Vespula pensylvanica; test: Initial field trap experiment: octyl butyrate, heptyl butyrate or 1:1 mixture, LHS north lawn; type: in vivo; settings: one trap per composition, 6/15-7/21 (approximately 1 month), LHS NL
Experimental: Several experiments were performed to determine the relative attractiveness of heptyl butyrate, octyl butyrate and a 1:1 mixture of the two esters. In an initial experiment, one trap each containing octyl butyrate, heptyl butyrate, or a 1:1 mixture of the two esters, was placed around the perimeter of the north lawn of the Lawrence Hall of Science, University of California, Berkeley. After approximately 1 month, the yellowjackets in each trap were collected and counted. […]

[6] = system: yellowjackets; test: Field trap test octyl butyrate vs. OB + 1% trans-2-hexenol, Strawberry Baseball Diamonds; type: in vivo, Vespula pensylvanica; settings: 8 ml attractant, 27 days; for # of YJ (single trap): per trap, t-2-H 1% by weight
Experimental: In another experiment conducted at the Strawberry Baseball Diamonds, octyl butyrate was compared to octyl butyrate+t-2-hexenol, where the trans-2-hexenol was present in 1% concentration by weight. […] For each treatment, 8 ml of attractant was used. The traps were collected and counted after 27 days. The total number of yellowjackets caught in the three traps with octyl butyrate alone is 113. A total of 170 yellowjackets were caught in the three traps baited with octyl butyrate +t-2-hexenol.

[7] = system: yellowjackets; test: Field trap test octyl butyrate vs. OB + 1% MSA + 1% t-2-H, LHS North Lawn; type: in vivo, Vespula pensylvanica; settings: three traps per treatment, 8 ml attractant, 1% each MSA and t-2-H; listed as OB
Experimental: In a separate experiment, a mixture of octyl butyrate and the two kairomones methyl salicylate (MSA) and trans-2-hexenol (t-2-H), where the two kairomones were each present in 1% by weight quantities, was tested against octyl butyrate alone. Three repetitions of each treatment were tested in yellowjacket traps placed around the Lawrence Hall of Science North Lawn on Jul. 21, 2005. Each lure contained 8 ml of attractant. The traps were collected and the yellowjackets removed and counted on Aug. 11, 2005. […] A total of 40 yellowjackets were caught using the combination OB+MSA+t-2-H, whereas only 31 yellowjackets were caught in traps baited with OB alone.

`CCCCCCCCOC(=O)CCC` [octyl butyrate] was tested, and the “relative attractiveness of the esters, in words” value [1] was “inferior attractant to heptyl butyrate”, the “Total numbers of yellowjackets caught for all trials” value [1] was 315 and the “Avg catch per trap” value [2] was 45. The “total YJ” value [2] was 134, the “# of YJ (single trap)” value ([3]; per trap, 8 ml attractant on cotton pad, LHS Back Plaza, collected Sep. 8, 2005) was 0 and the “Totals (YJ per treatment)” value ([3]; three traps per treatment, 8 ml attractant) was “no yellowjackets were caught”. The “Total # YJ” value [4] was 145, the “# YJ caught” value [5] was 36 and the “# of YJ (single trap)” value ([6]; listed as OB) was 38 and 41. For the same compound, the “# of YJ (single trap)” value ([6]; listed as Octyl (OB)) was 34, the “Total YJ per Treatment” value ([6]; three traps per treatment, t-2-H 1%) was 113 and the “Totals (YJ per treatment)” value [7] was 31 and 30.
`CCCCCCCOC(=O)CCC` [heptyl butyrate] was tested, and the “relative attractiveness of the esters, in words” value [1] was “more effective in luring and capturing yellowjackets than octyl butyrate”, the “Total numbers of yellowjackets caught for all trials” value [1] was 625 and the “Avg catch per trap” value [2] was 61. For the same compound, the “total YJ” value [2] was 242, the “Total # YJ” value [4] was 235 and the “# YJ caught” value [5] was 148.

Reference: patent US20090081154A1, “Attractant composition for yellowjackets” (priority 2006, published 2009)
